Test results as given in patent US10175256B2, “Compositions and methods utilizing lysophosphatidylcholine scaffolds” (National University Of Singapore, priority 2013, dated 2019).
Where “and” joins values, the source holds several entries; their conditions need not be identical. Identical values can stand only once.

Biological target: T1, mouse Mfsd2a (Mus musculus, UniProt Q9DA75)
T1 construct: expressed in transfected cells; host or cells: HEK293
T1 sequence (Q9DA75 1-534): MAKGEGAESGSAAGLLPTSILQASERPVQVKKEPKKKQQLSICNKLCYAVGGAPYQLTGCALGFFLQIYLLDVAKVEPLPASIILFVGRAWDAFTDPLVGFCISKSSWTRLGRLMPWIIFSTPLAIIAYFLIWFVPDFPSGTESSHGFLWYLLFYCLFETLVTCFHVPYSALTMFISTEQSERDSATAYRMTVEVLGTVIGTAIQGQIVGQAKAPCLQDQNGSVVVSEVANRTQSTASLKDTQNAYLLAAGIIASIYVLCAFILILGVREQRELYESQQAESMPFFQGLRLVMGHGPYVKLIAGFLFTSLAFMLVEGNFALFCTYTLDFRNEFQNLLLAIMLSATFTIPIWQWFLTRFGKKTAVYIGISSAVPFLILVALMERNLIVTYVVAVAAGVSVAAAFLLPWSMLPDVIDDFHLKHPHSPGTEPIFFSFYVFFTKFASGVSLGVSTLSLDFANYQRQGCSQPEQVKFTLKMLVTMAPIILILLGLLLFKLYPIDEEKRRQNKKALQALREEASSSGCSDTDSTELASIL
Experiment: Cell-based free fatty acid transport/uptake in Mfsd2a expressing HEK293 cells (mass spectrometry, TLC; Table 1)
Conditions: Mfsd2a HEK293 cells, 100 uM fatty acid/BSA overnight
Method in brief: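 HEK293 cells expressing mouse Mfsd2a, or mock controls, were incubated overnight with 100 μM BSA-complexed fatty acids. Lipids were extracted in hexane:isopropanol (3:2) and phospholipid species quantified by HPLC-MS/MS against spiked internal standards. For TLC, cells received 100 μM [^14C]-oleate overnight, and phospholipids and neutral lipids were resolved.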

CCCCCCCCCCCCCCCC(=O)O [Palmitic acid]
PE34p:2 in total phospholipid: 0.2893 mol percent and 0.2458 mol percent and 0.4295 mol percent | PE36:1 in total phospholipid: 1.713 mol percent and 1.465 mol percent and 1.861 mol percent | PE36:2 in total phospholipid: 2.152 mol percent and 2.192 mol percent and 2.267 mol percent | PE36:3 in total phospholipid: 0.4629 mol percent and 0.5112 mol percent and 0.4773 mol percent | PE36:4 in total phospholipid: 0.3125 mol percent and 0.2556 mol percent and 0.346 mol percent | PE36p:1 in total phospholipid: 0.5555 mol percent and 0.4227 mol percent and 0.5608 mol percent | PE36p:2 in total phospholipid: 0.7869 mol percent and 0.5996 mol percent and 0.6801 mol percent | PE36p:3 in total phospholipid: 0.8448 mol percent and 0.8061 mol percent and 1.169 mol percent | PE36p:4 in total phospholipid: 1.273 mol percent and 1.14 mol percent and 1.432 mol percent | PE38:1 in total phospholipid: 0.4976 mol percent and 0.3342 mol percent and 0.5727 mol percent | PE38:2 in total phospholipid: 0.3125 mol percent and 0.3342 mol percent and 0.3579 mol percent | PE38:3 in total phospholipid: 0.6133 mol percent and 0.6685 mol percent and 0.6204 mol percent | PE38:4 in total phospholipid: 0.9026 mol percent and 0.9732 mol percent and 1.301 mol percent | PE38:5 in total phospholipid: 0.486 mol percent and 0.4227 mol percent and 0.5488 mol percent | PE38:6 in total phospholipid: 0.2083 mol percent and 0.1081 mol percent and 0.1432 mol percent | PE38:7 in total phospholipid: 0.08101 mol percent and 0.07864 mol percent and 0.04773 mol percent | PE38p:0 in total phospholipid: 0.1273 mol percent and 0.118 mol percent and 0.1074 mol percent | PE38p:1 in total phospholipid: 0.1504 mol percent and 0.1769 mol percent and 0.2744 mol percent | PE38p:2 in total phospholipid: 0.3935 mol percent and 0.2359 mol percent and 0.3937 mol percent | PE38p:3 in total phospholipid: 0.9721 mol percent and 0.8651 mol percent and 0.9426 mol percent | PE38p:4 in total phospholipid: 0.9142 mol percent and 0.9437 mol percent and 1.086 mol percent | PE38p:5 in total phospholipid: 0.9489 mol percent and 0.7569 mol percent and 0.8591 mol percent | PE38p:6 in total phospholipid: 1.215 mol percent and 1.298 mol percent and 1.348 mol percent | PE40:3 in total phospholipid: 0.08101 mol percent and 0.0983 mol percent and 0.1074 mol percent | PE40:4 in total phospholipid: 0.1157 mol percent and 0.118 mol percent and 0.1909 mol percent | PE40:5 in total phospholipid: 0.1504 mol percent and 0.1868 mol percent and 0.1909 mol percent | PE40:6 in total phospholipid: 0.4282 mol percent and 0.3539 mol percent and 0.3699 mol percent | PE40p:4 in total phospholipid: 0.1736 mol percent and 0.1769 mol percent and 0.3102 mol percent | PE40p:5 in total phospholipid: 0.2893 mol percent and 0.2064 mol percent and 0.3341 mol percent | PE40p:6 in total phospholipid: 0.6018 mol percent and 0.6095 mol percent and 0.4892 mol percent | PE42:7 in total phospholipid: 0.06943 mol percent and 0.05898 mol percent and 0.09545 mol percent | PE42p:4 in total phospholipid: 0.09258 mol percent and 0.1081 mol percent and 0.1074 mol percent | PI 32:1 in total phospholipid: 0.01515 mol percent and 0.01528 mol percent and 0.0154 mol percent | PI 32:2 in total phospholipid: 0.002439 mol percent and 0.002103 mol percent and 0.001294 mol percent | PI 34:1 in total phospholipid: 0.1103 mol percent and 0.114 mol percent and 0.1029 mol percent | PI 34:2 in total phospholipid: 0.0629 mol percent and 0.06982 mol percent and 0.06458 mol percent | PI 36:1 in total phospholipid: 0.1503 mol percent and 0.1538 mol percent and 0.1543 mol percent | PI 36:2 in total phospholipid: 0.3719 mol percent and 0.3721 mol percent and 0.3402 mol percent | PI 36:3 in total phospholipid: 0.1684 mol percent and 0.1865 mol percent and 0.158 mol percent | PI 36:4 in total phospholipid: 0.03864 mol percent and 0.0429 mol percent and 0.03921 mol percent | PI 38:2 in total phospholipid: 0.3564 mol percent and 0.36 mol percent and 0.319 mol percent | PI 38:3 in total phospholipid: 1.005 mol percent and 1.022 mol percent and 0.9636 mol percent | PI 38:4 in total phospholipid: 0.3607 mol percent and 0.3811 mol percent and 0.3385 mol percent | PI 38:5 in total phospholipid: 0.05186 mol percent and 0.04823 mol percent and 0.04943 mol percent | PI 38:6 in total phospholipid: 0.006419 mol percent and 0.006589 mol percent and 0.006082 mol percent | PI 40:3 in total phospholipid: 0.02721 mol percent and 0.02636 mol percent and 0.02342 mol percent | PI 40:4 in total phospholipid: 0.01374 mol percent and 0.0136 mol percent and 0.01449 mol percent | PI 40:5 in total phospholipid: 0.006419 mol percent and 0.00673 mol percent and 0.006341 mol percent | PI 40:6 in total phospholipid: 0.008088 mol percent and 0.005328 mol percent and 0.005047 mol percent | PS(sum) in total phospholipid: 2.6184 mol percent and 2.721 mol percent and 2.696 mol percent | PS:34:1 in total phospholipid: 0.4034 mol percent and 0.439 mol percent and 0.4315 mol percent | PS:34:2 in total phospholipid: 0.04042 mol percent and 0.03854 mol percent and 0.04968 mol percent | PS:36:1 in total phospholipid: 1.063 mol percent and 1.166 mol percent and 1.107 mol percent | PS:36:2 in total phospholipid: 0.3989 mol percent and 0.3832 mol percent and 0.387 mol percent | PS:36:3 in total phospholipid: 0.02599 mol percent and 0.02171 mol percent and 0.02615 mol percent | PS:36:4 in total phospholipid: 0.004537 mol percent and 0.005316 mol percent and 0.006102 mol percent | PS:38:2 in total phospholipid: 0.2194 mol percent and 0.2087 mol percent and 0.231 mol percent | PS:38:3 in total phospholipid: 0.1497 mol percent and 0.1471 mol percent and 0.1469 mol percent | PS:38:4 in total phospholipid: 0.05651 mol percent and 0.07531 mol percent and 0.06102 mol percent | PS:38:5 in total phospholipid: 0.007425 mol percent and 0.01063 mol percent and 0.01438 mol percent | PS:40:4 in total phospholipid: 0.07342 mol percent and 0.05892 mol percent and 0.05971 mol percent | PS:40:5 in total phospholipid: 0.04908 mol percent and 0.05626 mol percent and 0.06189 mol percent | PS:40:6 in total phospholipid: 0.1089 mol percent and 0.09746 mol percent and 0.1011 mol percent | PS:40:7 in total phospholipid: 0.01732 mol percent and 0.0124 mol percent and 0.01264 mol percent | Total PC + lysoPC in total phospholipid: 67.6 mol percent and 68.89 mol percent and 64.689 mol percent | Total PE + lysoPE in total phospholipid: 26.98 mol percent and 25.52 mol percent and 29.98 mol percent | Total PI + lysoPI in total phospholipid: 2.796 mol percent and 2.866 mol percent and 2.638 mol percent
